Columns and labels:
[1] = system: C. tropicalis drug resistant isolates; assay: Susceptibility of multidrug resistant clinical isolates, CLSI M27A broth microdilution; format: cell-based, Candida tropicalis; conditions: resistant to Itraconazole
Excerpt: (§1) Oral Biosciences laboratory has one of the largest collections of fungal isolates, particular that of Candida species in the world. In our previous studies, we have found multidrug resistant clinical isolates of Candida species against existing antifungals. In particular, some of these strains are resistant to best antifungal agents to date such as caspofungin, amphotericin B and fluconazole. Therefore, we performed antifungal susceptibility testing for SM21 against these drug resistant Candida isolates suing CLSI M27A brothmicrodultion assay and CLSI M44-A disc diffusion assay.

[2] = system: C. tropicalis; assay: Antifungal susceptibility (MIC/MFC), CLSI criteria; format: cell-based, Candida tropicalis; conditions: C. tropicalis ATCC; 0.5 McFarland inoculum (10^6 cells/ml)
Experimental: (§2) Antifungal activity of the small molecules was evaluated using USA standards, Clinical and Laboratory Standards Institute (CLSI) criteria. In brief, inocula from 24 h Candida cultures on Sabourauds's dextore agar were standardized to a turbidity equivalent of 0.5 McFarland standards at 520 nm with a spectrophotometer. The suspensions were further diluted in Rosewell Park Memorial Institute (RPMI) 1640 medium (Life technologies, New York, USA) to yield an inoculum concentration of approximately 0.5 1×10^3 to 2.5 1×10^3 cells/ml. Minimum inhibitory concentration (MIC) and minimum fungicidal concentration (MFC) assay was performed in 96-well plates (Iwaki, Tokyo, Japan) and each of the Candida species was exposed to a double dilution of SM21. Amphotericin B was used as a positive control. All the experiments were preformed three occasions with duplicates for all isolates. The plates were incubated at 35° C. for 48 h to evaluate MIC. In the case of Cryotococcus neoformans, reading were taken after 72 h. Aforementioned assay was performed for C. albicans ATCC 90028, C. albicans SC5314 and 10 C. albicans clinical isolates. Moreover, MIC/MFC determination was carried out for other fungal species such as C. glabrata, C. krusei, C. tropicalis, C. parapsilosis, C. neoformans, Aspergillus fumigates and Penicillium marneffei. […]

[3] = system: C. albicans; assay: Yeast-to-hypha (Y-H) transition inhibition under strong hyphal inducing conditions; format: cell-based, Candida albicans; set-up: Y-Hi (yeast-to-hypha inhibitory activity): unit: μg/ml
Excerpt: A large collection of small molecule library was screened in search of inhibitors of yeast-to-hypha transition (Y—H) of C. albicans using 384-well plate-high throughout assays (HTS). […] After subsequent studies with robust Y—H inducing conditions, we herein report a novel small molecule SM21 (FIG. 1) with strong Y-Hi activity and antifungal-activity.
Several environmental conditions which are known to induce the hyphal formation of C. albicans such as serum, Lee's medium, Spider medium, temperature and 37° C. were used to test the ability of SM21 to inhibit Y—H transition. […] SM21 could act as a Y-Hi at a lower concentration of 0.025 μg/ml and 0.0.5 μg/ml for 10^4 cells/ml and 10^6 cells/ml of C. albicans, respectively. Chemical structure of SM21 is shown in (F)

[4] = system: human gingival fibroblasts; assay: Cytotoxicity assay (MTT reduction, FIG. 6); format: cell-based; conditions: primary human gingival fibroblasts; at effective concentration
Experimental: (§3) FIG. 6. MTT reduction assay of primary culture human monocytes, gingival fibroblasts and oral keratinocytes showing safety of SM21.
(§4) Next, we used mouse model and treated the animals with 100 times of the effective dose (2 μg) i.e. 200 μg of SM21 twice a day for five days.

[5] = system: human monocytes; assay: Cytotoxicity assay (MTT reduction, FIG. 6); format: cell-based; conditions: primary human monocytes; at effective concentration
Experimental: as §3, §4

[6] = system: human oral keratinocytes; assay: Cytotoxicity assay (MTT reduction, FIG. 6); format: cell-based; conditions: primary human oral keratinocytes; at effective concentration
Experimental: as §3, §4

[7] = system: C. albicans; assay: Dose-dependent assay of MIC/MFC at different cell densities; format: cell-based, Candida albicans; set-up: unit not given here
Experimental: (§5) Antifungal activity of the small molecules was evaluated using USA standards, Clinical and Laboratory Standards Institute (CLSI) criteria. In brief, inocula from 24 h Candida cultures on Sabourauds's dextore agar were standardized to a turbidity equivalent of 0.5 McFarland standards at 520 nm with a spectrophotometer. The suspensions were further diluted in Rosewell Park Memorial Institute (RPMI) 1640 medium (Life technologies, New York, USA) to yield an inoculum concentration of approximately 0.5 1×10^3 to 2.5 1×10^3 cells/ml. Minimum inhibitory concentration (MIC) and minimum fungicidal concentration (MFC) assay was performed in 96-well plates (Iwaki, Tokyo, Japan) and each of the Candida species was exposed to a double dilution of SM21. Amphotericin B was used as a positive control. All the experiments were preformed three occasions with duplicates for all isolates. The plates were incubated at 35° C. for 48 h to evaluate MIC. In the case of Cryotococcus neoformans, reading were taken after 72 h. Aforementioned assay was performed for C. albicans ATCC 90028, C. albicans SC5314 and 10 C. albicans clinical isolates. Moreover, MIC/MFC determination was carried out for other fungal species such as C. glabrata, C. krusei, C. tropicalis, C. parapsilosis, C. neoformans, Aspergillus fumigates and Penicillium marneffei. […] Next using dose-dependent assay we tested that MIC/MFC of SM21 from 10^3 cells/ml to 10^7 cells/ml of C. albicans (Table 2). Each of the foregoing experiment was repeated on three different occasions.

[8] = system: C. neoformans; assay: Antifungal susceptibility (MIC/MFC), CLSI criteria, reading after 72 h; format: cell-based, Cryptococcus neoformans; conditions: 0.5 McFarland inoculum (10^6 cells/ml)
Experimental: as §2

[9] = system: C. albicans; assay: Antifungal susceptibility (MIC/MFC), CLSI criteria, 96-well double dilution; format: cell-based, Candida albicans; conditions: for Susceptibility (MIC90): 0.5 McFarland inoculum (10^6 cells/ml)
Experimental: as §5

[10] = system: Vero cell line; assay: Cytotoxicity assay; format: cell-based; conditions: at effective concentration
[11] = system: Aspergillus fumigatus; assay: Antifungal susceptibility (MIC/MFC), CLSI criteria; format: cell-based; conditions: 0.5 McFarland inoculum (10^6 cells/ml)
Experimental: as §5

[12] = system: Penicillium marneffei; assay: Antifungal susceptibility (MIC/MFC), CLSI criteria; format: cell-based; conditions: 0.5 McFarland inoculum (10^6 cells/ml)
Experimental: as §5

[13] = system: mixed species Candida biofilms; assay: Mixed species Candida biofilm MIC, XTT reduction assay; format: cell-based; conditions: 48 h mixed species biofilms, two Candida species at 1×10^7 cells/ml each
Experimental: Clinical studies have shown that some of the Candida species could involve mixed Candida species such as C. albicans with non-albicans Candida species. Therefore, next we formed mixed species biofilms using the methods we have used in our previous published studies. This methodology is essentially similar to what mentioned under mono-species biofilms except initial inoculums involve two Candida species at equal inoculums size of 1×10^7 cells/ml. After 48 h of growth, mixed species Candida biofilms were subjected to serially diluted concentration of SM21 and MIC was determined by XTT reduction assay (FIG. 5).

[14] = system: C. albicans, C. glabrata, C. krusei, C. tropicalis, C. parapsilosis, C. neoformans, Aspergillus fumigates and Penicillium marneffei; assay: Antifungal activity against wide range of fungal species (summary); format: cell-based; conditions: range over fungal species
Experimental: as §2

[15] = system: C. albicans drug resistant isolate; assay: Susceptibility of multidrug resistant clinical isolates, CLSI M27A broth microdilution; format: cell-based, Candida albicans; conditions: C. albicans T1675; resistant to Fluconazole, Itraconazole
Excerpt: as §1

[16] = system: C. albicans SC5314 and C. albicans ATCC 90028; assay: Antifungal activity compared with caspofungin and amphotericin B (FIG. 2, CLSI M44-A disc diffusion); format: cell-based, Candida albicans
Excerpt: as §1

## CN(C)c1ccc(/C=C/c2cc(C(C)(C)C)[o+]c(C(C)(C)C)c2)cc1.[O-][Cl+3]([O-])([O-])[O-] [SM21]
[1]; C. tropicalis T789
  MIC: 1 µg/mL
[1]; C. tropicalis T1148
  MIC: 0.5 µg/mL
[1]; C. tropicalis T1427
  MIC: 1 µg/mL
[2]
  Susceptibility (MIC90): 0.8 µg/mL
[3]; 10^4 cells/ml of C. albicans
  Concentration acting as Y-Hi: 0.025 µg/mL
[3]; C. albicans 10^4 cells/ml
  Y-Hi (yeast-to-hypha inhibitory activity): 0.025
[3]; C. albicans 10^5 cells/ml
  Y-Hi (yeast-to-hypha inhibitory activity): 0.5
[3]; C. albicans 10^6 cells/ml
  Y-Hi (yeast-to-hypha inhibitory activity): 0.1
[3]; C. albicans 10^7 cells/ml
  Y-Hi (yeast-to-hypha inhibitory activity): 0.2
[3]; incubated with SM21 at Y-Hi concentration, serum, Lee's medium, Spider medium, 37° C.
  Morphology of C. albicans under hyphal inducing conditions: yeast morphology
[4]
  Cytotoxicity: no cytotoxicity
[5]
  Cytotoxicity: no cytotoxicity
[6]
  Cytotoxicity: no cytotoxicity
[7]; C. albicans 10^4 cells/ml
  MIC/MFC: 0.1
[7]; C. albicans 10^5 cells/ml
  MIC/MFC: 0.1
[7]; C. albicans 10^6 cells/ml
  MIC/MFC: 0.2
[7]; C. albicans 10^7 cells/ml
  MIC/MFC: 0.6
[8]
  Susceptibility (MIC90): 0.4 µg/mL
[9]; 20 C. albicans strains isolated from HIV/AIDS patients
  Antifungal activity against clinical isolates: active against all isolates
[9]; C. albicans ATCC 90028
  Susceptibility (MIC90): 0.2 µg/mL
[9]; C. albicans CL1
  Susceptibility (MIC90): 0.2 µg/mL
[9]; C. albicans CL2
  Susceptibility (MIC90): 0.2 µg/mL
[9]; C. albicans CL3
  Susceptibility (MIC90): 1.6 µg/mL
[9]; C. albicans CL4
  Susceptibility (MIC90): 0.8 µg/mL
[9]; C. albicans CL5
  Susceptibility (MIC90): 1.6 µg/mL
[9]; C. albicans CL6
  Susceptibility (MIC90): 1.6 µg/mL
[9]; C. albicans CL7
  Susceptibility (MIC90): 0.8 µg/mL
[9]; C. albicans CL8
  Susceptibility (MIC90): 0.8 µg/mL
[9]; C. albicans CL9
  Susceptibility (MIC90): 1.6 µg/mL
[9]; C. albicans CL10
  Susceptibility (MIC90): 1.6 µg/mL
[9]; C. albicans SC5314
  Susceptibility (MIC90): 0.2 µg/mL
[10]
  Cytotoxicity: no cytotoxicity
[11]
  Susceptibility (MIC90): 6.25 µg/mL
[12]
  Susceptibility (MIC90): 0.2 µg/mL
[13]
  Active concentration (MIC by XTT reduction assay) against mixed species biofilms: 25 µg/mL
[14]
  Concentration with antifungal activity against wide range of fungal species: 0.2 to 6.25 µg/mL
[15]
  MIC: 0.5 µg/mL
[16]; C. albicans ATCC 90028, CLSI quality control strain (FIG. 2B)
  Susceptibility of the strain to the agent: susceptible
[16]; C. albicans SC5314 (FIG. 2A)
  Susceptibility of the strain to the agent: susceptible

From US9642829B2, “Antifungal compound and uses thereof” (The University of Hong Kong, priority 2012, dated 2017)
